Results: patent US20210393742A1, “LONG-ACTING INTERLEUKIN-15 RECEPTOR AGONIST IN COMBINATION WITH ANOTHER PHARMACOLOGICALLY ACTIVE AGENT” (Nektar Therapeutics, priority 2018, published 2021)

Legend:
FaDu cells = assay: ADCC of cetuximab-coated FaDu cells by primed human NK cells (Example 20); format: cell-based; conditions: NK cells primed with 300 ng/mL overnight; cetuximab 300 ng/mL; E:T 10:1, 3 hours
Procedure: (§1) Human NK cells were magnetically sorted from normal donor PBMCs using negative selection. NK cells were seeded in a 96-well U-bottom plate at a density of 400,000 cells/well. NK cells were stimulated with mono(methoxyPEG-N-butanamide)40 kD interleukin-15 (Compound 1) (300 ng/mL) (+) or left unstimulated (−) in complete RPMI-1640 media supplemented with 10% fetal bovine serum (FBS) and 1% antibiotic/antimycotic overnight at 37° C. in 5% CO2.
The epithelial/pharyngeal head and neck human FaDu cells (ATCC #HTB-43) were cultured in minimal eagle's essential media (EMEM; ATCC+30-2003) supplemented with 10% fetal bovine serum (FBS) and 1% antibiotic/antimycotic at 37° C. in 5% CO2. FaDu cells were subcultured by incubating in 0.25% Trypsin-0.53 mM EDTA for 5 min at 37° C., washed in sterile PBS, resuspended in culture media, counted, and co-cultured with the NK cells using an effector:target (E:T) of 10:1. […] Following incubation, cells were washed in flow staining buffer, Fc-blocked for 15 min at 4° C., and surface-stained (CD45, CD56, CD3-fluorescently conjugated antibodies) for 20 min at 4° C. in the dark. The cells were washed in PBS and incubated in 7-aminoactinomycin (7-AAD) viability stain for 30 minutes at 4° C. before acquiring for flow cytometric analysis using a Fortessa (BD). […]

NK cells [1] = assay: NKG2A and NKG2D surface expression on bone marrow NK cells of Daudi lymphoma bearing mice (Example 4); format: in vivo; conditions: bone marrow day 24; Conjugate 1 0.3 mg/kg SC days 14 and 21; antibody 0.5 mg/kg IP day 14
Procedure: (§2) Balb/c mice bearing Daudi B cell lymphoma tumors in the bone marrow (n=6/group) were intraperitoneally administered a single 0.5 mg/kg dose of the human CD38 protein targeting clinical antibody daratumumab (DARZALEX®, Janssen Biotech) or a nonspecific control antibody with a matching isotype on day 14 after Daudi cell intravenous inoculation. Additional groups were administered mono(methoxyPEG-N-butanamide)40 kD interleukin-15 (Conjugate 1) subcutaneously at a dose of 0.3 mg/kg as a single agent on days 14 and 21 after Daudi cell inoculation, or administered a combination treatment of Conjugate 1 administered subcutaneously at doses of 0.03 mg/kg or 0.3 mg/kg on days 14 and 21 after Daudi cell inoculation and daratumumab administered intraperitoneally at a dose of 0.5 mg/kg on day 14 after Daudi cell inoculation.
Three days following the second Conjugate 1 administration (day 24 after Daudi inoculation), bone marrow was collected and the NK cell fraction was measured by flow cytometry in total bone marrow. Expression of the cell surface activating receptor NKG2D and the inhibitory checkpoint receptor NKG2A are shown in FIGS. 7A and 7B, respectively.

CD56+ human NK cells = assay: Functional activation of human NK cells in PBMCs, CD69 and CD107a MFI by flow cytometry (Example 6); format: cell-based; conditions: overnight; Conjugate 1 1 μg/ml; plate coated with hIgG 0.1 mg/ml
Procedure: Functional activation of human NK cells within a human peripheral blood mononuclear cells (PBMCs) preparation was induced in vitro. PBMCs from two donors were incubated overnight in the presence of (i) mono(methoxyPEG-N-butanamide)40 kD interleukin-15 (Conjugate 1) at a concentration of 1 μg/ml; (ii) on cell culture plastic that had been prior coated overnight with human total immunoglobulin G (hIgG) solution at a concentration of 0.1 mg/ml (iii) on cell culture plastic that had been prior coated overnight with human total immunoglobulin G (hIgG) solution at a concentration of 0.1 mg/ml and in the presence of Conjugate 1 at a concentration of 1 μg/ml; or (iv) on regular cell culture plastic.
After the incubation period, NK cell activation was measured with flow cytometry by measuring the increase of median fluorescence intensity (MFI) signal of CD69 (FIG. 9A) and CD107a (FIG. 9B) detecting antibodies on the surface of CD56+ human NK cells within the PBMCs. Functional activation of NK cells was assessed by calculating the fold-change in MFI when comparing control condition where the cells were exposed to neither hIgG nor Conjugate 1. […] Secreted granzyme B concentration also indicative of NK cell activation in the culture media at the end of the experiment was measured by ELISA (FIG. 9C).

NK cells [2] = assay: CD16 surface expression on bone marrow NK cells of Daudi lymphoma bearing mice (Example 10); format: in vivo; conditions: bone marrow day 24
Procedure: as §2, with “were treated with (i) mono(mPEG-N-butanamide)40” for “were administered mono(methoxyPEG-N-butanamide)40”, “1) administered” for “1)”, “or (ii)” for “or administered”
Three days following the second Conjugate 1 administration (day 24 after Daudi inoculation), bone marrow was collected and the NK cell fraction was measured by flow cytometry in total bone marrow. The fraction of NK cells expressing the cell surface CD16 receptor that is known to mediate antibody dependent cellular cytotoxicity mechanism in the presence of tumor targeting antibodies, and the change in CD16 expression per cell basis on NK cells are shown in FIGS. 13A and 13B, respectively.

HCT-116 cells = assay: ADCC of cetuximab-coated HCT-116 cells by primed human NK cells (Example 20); format: cell-based; conditions: NK cells primed with 300 ng/mL overnight; cetuximab 30 ug/mL; E:T 10:1, 3 hours
Procedure: as §1
The colonic human HCT-116 cells (ATCC #CCL-247) were cultured McCoy 5A media (ATCC+30-2007) supplemented with 10% fetal bovine serum (FBS) and 1% antibiotic/antimycotic at 37° C. in 5% CO2. HCT-116 cells were subcultured by incubating in 0.25% Trypsin-0.53 mM EDTA for 5 min at 37° C., washed in sterile PBS, resuspended in culture media, counted, and co-cultured with the NK cells using an effector:target (E:T) of 10:1. […] Following incubation, cells were washed in flow staining buffer, Fc-blocked for 15 min at 4° C., and surface-stained (EpCAM, CD45, CD56, CD3-fluorescently conjugated antibodies) for 20 min at 4° C. in the dark. The cells were washed in PBS and incubated in 7-aminoactinomycin (7-AAD) viability stain for 30 minutes at 4° C. before acquiring for flow cytometric analysis using a Fortessa (BD). The percentage of 7-AAD+CD45-EpCAM+ target cells from total cell population is the percentage for dead tumor cells.

[3] = Conjugate 1 0.3 mg/kg, antibody 0.5 mg/kg

For “mono(methoxyPEG-N-butanamide)40 kD interleukin-15 [Conjugate 1]”, the “ADCC, % 7-AAD+CD45- target cells” value (FaDu cells) was “enhance ADCC of cetuximab-coated human solid tumor cells”, the “% NK cells expressing NKG2A (mean, n = 6)” value (NK cells [1]) was 73.70% and the “% NK cells expressing NKG2D (mean, n = 6)” value (NK cells [1]) was 2.157%. For the same substance, the “CD69 MFI fold-change relative to no stimulation control” value (CD56+ human NK cells) was 1.8 fold, the “CD107a MFI fold-change relative to no stimulation control” value (CD56+ human NK cells) was 2.6 fold and the “Fraction of NK cell expressing cell surface CD16 (mean value)” value (NK cells [2]; Conjugate 1 0.3 mg/kg SC days 14 and 21, antibody 0.5 mg/kg IP day 14) was 96%. The “CD16 mean fluorescence intensity (MFI mean value)” value (NK cells [2]; [3]) was 853, the “Relative CD16 expression compared to untreated condition” value (NK cells [2]; [3]) was 1.8x increase and the “ADCC, % 7-AAD+CD45-EpCAM+ target cells” value (HCT-116 cells) was “enhance ADCC of cetuximab-coated human solid tumor cells”.
